Counter-ions that a name gives are not always drawn. Like-named read-outs stand apart in the source and are kept apart here.
Key:
[1] = molecular target: T1, LmjIPCS (inositol phosphorylceramide synthase from L. major) (Leishmania major, UniProt E9AFX2); assay: biochemical; assay type: biochemical; design: inhibition: dose or concentration left out as unconfirmed; settings: for inhibition at 20000 µM: read-out: 20mM inhibition LmjIPCS; for inhibition: read-out: inhibition LmjIPCS
T1 sequence (E9AFX2 1-338): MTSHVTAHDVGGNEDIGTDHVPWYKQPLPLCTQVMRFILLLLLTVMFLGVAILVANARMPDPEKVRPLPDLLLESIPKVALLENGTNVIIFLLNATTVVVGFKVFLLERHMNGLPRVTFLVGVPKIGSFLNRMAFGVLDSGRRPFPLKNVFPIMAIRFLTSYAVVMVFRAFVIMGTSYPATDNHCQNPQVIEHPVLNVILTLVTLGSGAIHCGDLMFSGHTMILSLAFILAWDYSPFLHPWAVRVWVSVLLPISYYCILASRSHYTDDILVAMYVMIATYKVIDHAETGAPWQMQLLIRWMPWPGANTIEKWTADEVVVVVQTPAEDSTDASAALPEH

[2] = system: L. major (FV1) promastigotes; assay: Antipromastigote resazurin assay, L. major (FV1) wild type; assay type: cell-based, Leishmania major
[3] = NINDS set screen against L. major promastigotes, single concentration printed as 10mM
[4] = NINDS set screen, single concentration printed as 20mM
[5] = single concentration 20mM as printed, screening of NINDS set, sheet Screen 1

## Cc1cc(N)c2ccccc2[n+]1CCCCCCCCCC[n+]1c(C)cc(N)c2ccccc21
[1]
  20mM inhibition LmjIPCS: 72%
[2]; [3]
  10mM inhibition L. major: <5%

## CCN1C[C@]2(COC)[C@H](O)C[C@H](OC)[C@@]34[C@@H]5C[C@@]6(O)[C@H](OC(=O)c7ccccc7)[C@@H]5[C@@](OC(C)=O)([C@@H]([C@H](OC)[C@H]23)[C@@H]14)[C@@H](O)[C@@H]6OC [ACONITINE]
[1]
  20mM inhibition LmjIPCS: 97%
[2]; [3]
  10mM inhibition L. major: <5%

## CCN(CCCc1ccccc1)CCCc1ccccc1 [ALVERINE]
[1]; [4]
  20mM inhibition LmjIPCS: 70%
[2]; [3]
  10mM inhibition L. major: <5%

## CN(C)CCC=C1c2ccccc2CCc2ccccc21 [AMITRIPTYLINE]
[1]
  20mM inhibition LmjIPCS: 82%
[2]; [3]
  10mM inhibition L. major: <5%

## O=C1c2c(O)cccc2Cc2cccc(O)c21 [ANTHRALIN]
[1]; [4]
  20mM inhibition LmjIPCS: 70%
[2]; [3]
  10mM inhibition L. major: <5%

## CN1[C@@H]2CC[C@H]1C[C@@H](OC(c1ccccc1)c1ccccc1)C2 [BENZTROPINE]
[2]
  10mM inhibition L. major: <5%

## CCCC1O[C@@H]2C[C@H]3[C@@H]4CCC5=CC(=O)C=C[C@]5(C)[C@H]4[C@@H](O)C[C@]3(C)[C@]2(C(=O)CO)O1 (stereo partly shown) [BUDESONIDE]
[1]; [4]
  20mM inhibition LmjIPCS: 79%
[2]; [3]
  10mM inhibition L. major: <5%

## COc1ccccc1OCCNCC(O)COc1cccc2[nH]c3ccccc3c12 (stereo not shown) [CARVEDILOL]
[1]
  20mM inhibition LmjIPCS: 73%
[2]; [3]
  10mM inhibition L. major: <5%

## CCCCCCCCCCCCCCCC[N+](C)(C)C [CETRIMONIUM]
[1]
  20mM inhibition LmjIPCS: 75%
[2]; [3]
  10mM inhibition L. major: <5%

## CC1=C2C(=CO[C@H](C)[C@H]2C)C(O)=C(C(=O)O)C1=O [CITRININ]
[1]
  20mM inhibition LmjIPCS: 76%
[2]; [3]
  10mM inhibition L. major: <5%

## CC(C)NC[C@@H](O)COc1cccc2ccccc12 [DEXPROPRANOLOL]
[2]
  10mM inhibition L. major: <5%

## C[C@]12CC[C@@H]3c4ccc(O)cc4CC[C@H]3[C@@H]1CC[C@@H]2OC(=O)CCC1CCCC1 [ESTRADIOL CYPIONATE]
[1]
  20mM inhibition LmjIPCS: 83%
[2]; [3]
  10mM inhibition L. major: <5%

## CCC(=O)O[C@H]1CC[C@H]2[C@@H]3CCc4cc(O)ccc4[C@H]3CC[C@]12C [ESTRADIOL PROPIONATE]
[1]; [4]
  20mM inhibition LmjIPCS: 74%
[2]; [3]
  10mM inhibition L. major: <5%

## CCCCC(CC)CN1CN(CC(CC)CCCC)CC(C)(N)C1 (stereo not shown) [HEXETIDINE]
[1]; [4]
  20mM inhibition LmjIPCS: 85%
[2]; [3]
  10mM inhibition L. major: <5%

## CN(C)CCCN1c2ccccc2CCc2ccccc21 [IMIPRAMINE]
[2]; [3]
  10mM inhibition L. major: <5%

## CNCCCC12CCC(c3ccccc31)c1ccccc12 [MAPROTILINE]
[2]
  10mM inhibition L. major: <5%

## CN1CCc2c(c3ccccc3n2Cc2ccccc2)C1 [MEBHYDROLIN]
[1]; [4]
  20mM inhibition LmjIPCS: 72%
[2]; [3]
  10mM inhibition L. major: <5%

## Cc1cccc(CN2CCN(C(c3ccccc3)c3ccc(Cl)cc3)CC2)c1 (stereo not shown) [MECLIZINE]
[1]
  20mM inhibition LmjIPCS: 78%
[2]; [3]
  10mM inhibition L. major: <5%

## Clc1ccc(COC(Cn2ccnc2)c2ccc(Cl)cc2Cl)c(Cl)c1 (stereo not shown) [MICONAZOLE]
[2]
  10mM inhibition L. major: <5%

## NC[C@@H]1O[C@H](O[C@H]2[C@@H](O)[C@H](O[C@@H]3[C@@H](O)[C@H](N)C[C@H](N)[C@H]3O[C@H]3O[C@H](CN)[C@@H](O)[C@H](O)[C@H]3N)O[C@@H]2CO)[C@H](N)[C@@H](O)[C@@H]1O [NEOMYCIN]
[1]; [4]
  20mM inhibition LmjIPCS: 88%
[2]; [3]
  10mM inhibition L. major: <5%

## CO[C@]12C[C@@H](COC(=O)c3cncc(Br)c3)CN(C)[C@@H]1Cc1cn(C)c3cccc2c13 [NICERGOLINE]
[1]
  20mM inhibition LmjIPCS: 80%
[2]; [3]
  10mM inhibition L. major: <5%

## CNCCC=C1c2ccccc2CCc2ccccc21 [NORTRIPTYLINE]
[1]
  20mM inhibition LmjIPCS: 81%
[2]
  10mM inhibition L. major: <5%

## Cc1cc(C(C)(C)C)c(O)c(C)c1CC1=NCCN1 [OXYMETAZOLINE]
[1]; [4]
  20mM inhibition LmjIPCS: 75%
[2]; [3]
  10mM inhibition L. major: <5%

## COc1ccc(C(CN(C)C)C2(O)CCCCC2)cc1 (stereo not shown) [VENLAFAXINE]
[1]
  inhibition at 20000 µM: 26%

## COc1ccc(C(=O)O[C@H]2CC[C@@]3(C)[C@@H]4CC[C@H]5[C@]6(O)C[C@H](O)[C@@]7(O)[C@@H](CN8C[C@@H](C)CC[C@H]8[C@@]7(C)O)[C@]6(O)C[C@@]53O[C@]24O)cc1OC [VERATRIDINE]
[1]
  inhibition at 20000 µM: 11%

## Nc1ncnc2c1ncn2[C@@H]1O[C@H](CO)[C@@H](O)[C@@H]1O [VIDARABINE]
[1]
  inhibition: 10%

## CC[C@]12CCCN3CCc4c(n(c5ccccc45)C(=O)C1)[C@@H]32 [VINBURNINE]
[1]; [4]
  20mM inhibition LmjIPCS: 55%

## CC[C@]12CCCN3CCc4c(n(c5ccccc45)[C@@](O)(C(=O)OC)C1)[C@@H]32 [VINCAMINE]
[1]; NINDS set screen
  inhibition: -17%

## CCOC(=O)C1=C[C@]2(CC)CCCN3CCc4c(n1c1ccccc41)[C@@H]32 [VINPOCETINE]
[1]; [4]
  20mM inhibition LmjIPCS: 36%

## COC(=O)/C(=C1/OC(=O)C(c2ccccc2)=C1O)c1ccccc1 [VULPINIC ACID]
[1]; NINDS set screen
  inhibition: 13%

## Cc1cccc(C)c1N=C1NCCCS1 [XYLAZINE]
[1]
  inhibition at 20000 µM: -14%

## Cc1cc(C(C)(C)C)cc(C)c1CC1=NCCN1 [XYLOMETAZOLINE]
[1]; [4]
  20mM inhibition LmjIPCS: 62%

## O=C(O)c1cc(O)c2cccc(O)c2n1 [X[…]]
[1]
  inhibition at 20000 µM: 8%

## COC(=O)[C@@H]1[C@H]2C[C@H]3c4[nH]c5ccccc5c4CCN3C[C@@H]2CC[C@@H]1O [YOHIMBINE HYDROCHLORIDE]
[1]
  inhibition: 23%

## CCCOc1ccccc1-c1nc2nn[nH]c2c(=O)[nH]1 [ZAPRINAST]
[1]; screening of NINDS set, sheet Screen 1
  inhibition: 7%

## Cc1cn([C@H]2C[C@H](N=[N+]=[N-])[C@@H](CO)O2)c(=O)[nH]c1=O [ZIDOVUDINE [AZT]]
[1]; [5]
  20mM inhibition LmjIPCS: 7%

## CN(C)CCc1c[nH]c2ccc(C[C@H]3COC(=O)N3)cc12 [ZOLMITRIPTAN]
[1]
  20mM inhibition LmjIPCS: 44%

## Cc1cc(CC(=O)O)n(C)c1C(=O)c1ccc(Cl)cc1 [ZOMEPIRAC]
[1]
  inhibition at 20000 µM: 10%

## N#C/C(=C\c1cccc(O)c1)C(=O)O [alpha-CYANO-3-HYDROXYCINNAMIC ACID]
[1]
  inhibition at 20000 µM: 8%

## CC(=O)Oc1c(C)c(C)c2c(c1C)CCC(C)(CCC[C@H](C)CCC[C@H](C)CCCC(C)C)O2 (stereo partly drawn) [alpha-TOCOPHERYL ACETATE]
[1]
  inhibition at 20000 µM: -0.425%

## CC1=C(/C=C/C(C)=C/C=C/C(C)=C/C=C/C=C(C)/C=C/C=C(C)/C=C/C2=C(C)CCCC2(C)C)C(C)(C)CCC1 [beta-CAROTENE]
[1]
  20mM inhibition LmjIPCS: 45%

## COc1cc([C@@H]2c3cc4c(c(O)c3C[C@H]3COC(=O)[C@@H]32)OCO4)cc(OC)c1OC [beta-PELTATIN]
[1]
  inhibition at 20000 µM: -1.86%

## CCN(CC)CCOc1ccc(C(=C(Cl)c2ccccc2)c2ccccc2)cc1 [clomiphene 4, clomiphene, reference compound]
[2]
  10mM inhibition L. major: 65%
  ED50 vs L. major: 6.57 mM

## CN(C)CCC=C1c2ccccc2COc2ccccc21 [doxepin 5, doxepin, reference compound]
[2]
  10mM inhibition L. major: 44%
  ED50 vs L. major: 30.00 mM

## Fc1ccc(C(c2ccc(F)cc2)N2CCN(C/C=C/c3ccccc3)CC2)cc1 [flunarizine 7, flunarizine, reference compound]
[2]
  10mM inhibition L. major: 56%
  ED50 vs L. major: 1.73 mM

## NCCCC(=O)O [gamma-AMINOBUTYRIC ACID]
[1]
  inhibition: -20%

## NC(Cc1ccc(Cl)cc1)C(=O)O (stereo not shown) [p-CHLOROPHENYLALANINE]
[1]; [5]
  20mM inhibition LmjIPCS: 4%

## CN1CCN(CCCN2c3ccccc3Sc3ccc(Cl)cc32)CC1 [prochlorperazine edisylate 11, prochlorperazine edisylate, reference compound]
[2]
  10mM inhibition L. major: 11%
  ED50 vs L. major: 12.90 mM

## CC(C)NCC(O)COc1cccc2ccccc12 (stereo not shown) [propranolol 12, propranolol, reference compound]
[2]
  10mM inhibition L. major: 84%
  ED50 vs L. major: 4.91 mM

## CN[C@H]1CC[C@@H](c2ccc(Cl)c(Cl)c2)c2ccccc21 [sertraline 13, sertraline, reference compound]
[2]
  ED50 vs L. major: 14.58 mM

## BACITRACIN
[1]; [4]
  20mM inhibition LmjIPCS: 44%

## BENZALKONIUM CHLORIDE
[1]
  20mM inhibition LmjIPCS: 9%

## CAPREOMYCIN
[1]; [4]
  20mM inhibition LmjIPCS: 52%

## COLISTIMETHATE
[1]; [4]
  20mM inhibition LmjIPCS: 56%

## CRESOL
[1]
  20mM inhibition LmjIPCS: 53%

## DEGUELIN(-)
[1]
  20mM inhibition LmjIPCS: 51%

## HECOGENIN
[1]
  20mM inhibition LmjIPCS: 23%

## MERBROMIN
[1]
  20mM inhibition LmjIPCS: -21%

## SPIRAMYCIN
[1]; [5]
  20mM inhibition LmjIPCS: 10%

— article PMC7802075 (ACS Infectious Diseases, 2020)
